The record followed here is the supplement of paper PMC11208160.

The data set in a line: recombinant UMI read abundance after kanamycin selection (control-corrected) (log10(CPM+1)); higher = more efficient recombination; extreme values may be limits of the assay; sequences stand for … in AGTGCAGAGAAAATCGGCCAGTTTTCTCTGCCTGCAGTCCGCATGCCGTGGGACCCCTTGGGTTCTAACCTGTTGCCTAGATTTATGCAGCGGACTGCCTTTCTCCCAAAGTGATAAACCGG…AGGTTGGTTTCACT; site = the 11-nt donor. The essentials: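 Values, expressed as log10(CPM+1), derive from recombinant UMI counts converted to CPM, averaged across replicates and scaled by control-derived factors. Plating was with IPTG (0.07 mM) plus kanamycin or unselected, two replicates each. The screen pooled donor and donor-binding-loop pairs for the IS621 bridge recombinase in Escherichia coli.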
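Note: IS621 bridge recombinase in Escherichia coli cells against a fixed T5 target plasmid.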

As for “GGAGTGGCATGGACCGGTTTTCCCGGTAATCCGTATTTGGT (site GGAGTGGCTGC)”, the “recombinant UMI read abundance (log10)” value was determined as 0.537.
Under “GGAGTGGCATGGACCGGTTTTCCCGGTAATCCGTATTTGGT (site GGAGTGGCTTC)” stands 0.0104; under “GGAGTGGCATGGACCGGTTTTCCCGGTAATCCGTATTTGGT (site GGAGTGTCTAC)”, 1.1.
The value for “GGAGTGGCATGGACCGGTTTTCCCGGTAATCCGTATTTGGT (site GGAGTTGCTAC)” was 0; that for “GGAGTGGCATGGACCGGTTTTCCCGGTAATCCGTATTTGGT (site GGATTGGCTAC)” was 0.458.
The value for “GGAGTGGCATGGACCGGTTTTCCCGGTAATCCGTATTTGGT (site GGCGTGGCTAC)” was 0.0051; that for “GGAGTGGCATGGACCGGTTTTCCCGGTAATCCGTATTTGGT (site GGGGTGGCTAC)” was 0.0193; that for “GGAGTGGCATGGACCGGTTTTCCCGGTAATCCGTATTTGGT (site GGTGTGGCTAC)” was 0.564.
For the sequence “GGAGTGGCATGGACCGGTTTTCCCGGTAATCCGTATTTGGT (site GTAGTGGCTAC)”, the “recombinant UMI read abundance (log10)” value is 0.294.
In the case of “GGAGTGGCATGGACCGGTTTTCCCGGTAATCCGTATTTGGT (site TGAGTGGCTAC)”, the “recombinant UMI read abundance (log10)” value amounted to 0.32.
The value for “GGATCATCATGGACCGGTTTTCCCGGTAATCCGTATTTGAT (site CGATCATCTAG)” was 0; that for “GGATCATCATGGACCGGTTTTCCCGGTAATCCGTATTTGAT (site GGATCATCTAT)” was 0.00412.
With “GGATCATCATGGACCGGTTTTCCCGGTAATCCGTATTTGCT (site AGATCATCTAG)”, the “recombinant UMI read abundance (log10)” value was 0.
On to “GGATCATCATGGACCGGTTTTCCCGGTAATCCGTATTTGCT (site CGATCATCTAG)”, for which the “recombinant UMI read abundance (log10)” value came to 0.511.
Under “GGATCATCATGGACCGGTTTTCCCGGTAATCCGTATTTGCT (site GGATCATCTAG)” stands 1.59; under “GGATCATCATGGACCGGTTTTCCCGGTAATCCGTATTTGCT (site TGATCATCTAG)”, 0.91; under “GGATCCCCATGGACCGGTTTTCCCGGTAATCCGTATTTGCT (site GGATCCCCTAG)”, 0.0066.
Regarding “GGATCGACATGGACCGGTTTTCCCGGTAATCCGTATTTGTT (site AGATCGACTAA)”, the “recombinant UMI read abundance (log10)” value turned out to be 0.0171.
The value for “GGATCGACATGGACCGGTTTTCCCGGTAATCCGTATTTGTT (site CGATCGACTAA)” was 0.00751; that for “GGATCGACATGGACCGGTTTTCCCGGTAATCCGTATTTGTT (site GGATCGACTAA)” was 0.7; that for “GGATCGACATGGACCGGTTTTCCCGGTAATCCGTATTTGTT (site TGATCGACTAA)” was 0.00972.
Under “GGATCGGCATGGACCGGTTTTCCCGGTAATCCGTATTTGAC (site GGATCGGCTGT)” stands 1.87; under “GGATGATCATGGACCGGTTTTCCCGGTAATCCGTATTTGCT (site CGATCATCTAG)”, 0; under “GGATGATCATGGACCGGTTTTCCCGGTAATCCGTATTTGCT (site GGATGATCTAG)”, 2.36.
“GGATTATCATGGACCGGTTTTCCCGGTAATCCGTATTTGAT (site GGATTATCTAT)”: the “recombinant UMI read abundance (log10)” value was determined as 1.82.
For “GGATTGACATGGACCGGTTTTCCCGGTAATCCGTATTTGCC (site GGATAGACTGG)”, the “recombinant UMI read abundance (log10)” value is 1.42.
For “GGATTGACATGGACCGGTTTTCCCGGTAATCCGTATTTGCC (site GGATCGACTGG)”, the “recombinant UMI read abundance (log10)” value was found to be 1.06.
The value for “GGATTGACATGGACCGGTTTTCCCGGTAATCCGTATTTGCC (site GGATGGACTGG)” was 0; that for “GGATTGACATGGACCGGTTTTCCCGGTAATCCGTATTTGCC (site GGATTGACTGG)” was 1.98.
In the case of “GGCAAACCATGGACCGGTTTTCCCGGTAATCCGTATTTGAA (site GGCAAACCTTT)”, the “recombinant UMI read abundance (log10)” value worked out at 0.
The value for “GGCAAACCATGGACCGGTTTTCCCGGTAATCCGTATTTGAA (site GGCAACCCTTT)” was 0; that for “GGCAAACCATGGACCGGTTTTCCCGGTAATCCGTATTTGAA (site GGCAAGCCTTT)” was 0.00636; that for “GGCAAACCATGGACCGGTTTTCCCGGTAATCCGTATTTGAA (site GGCAATCCTTT)” was 0.
The value for “GGCAACCCATGGACCGGTTTTCCCGGTAATCCGTATTTGGA (site GGCAACCCTTC)” was 0.0138; that for “GGCAATCCATGGACCGGTTTTCCCGGTAATCCGTATTTGAC (site GGCAATCCTAT)” was 0.00921; that for “GGCAATCCATGGACCGGTTTTCCCGGTAATCCGTATTTGAC (site GGCAATCCTCT)” was 0.00258.
Turning to “GGCAATCCATGGACCGGTTTTCCCGGTAATCCGTATTTGAC (site GGCAATCCTGT)”, the “recombinant UMI read abundance (log10)” value stood at 0.665.
Regarding “GGCAATCCATGGACCGGTTTTCCCGGTAATCCGTATTTGAC (site GGCAATCCTTT)”, the “recombinant UMI read abundance (log10)” value was found to be 0.
For the sequence “GGCAATCCATGGACCGGTTTTCCCGGTAATCCGTATTTGTA (site GGCAATCCTTA)”, the “recombinant UMI read abundance (log10)” value came to 0.264.
Regarding “GGCAATCCATGGACCGGTTTTCCCGGTAATCCGTATTTGTA (site GGCAATCCTTC)”, the “recombinant UMI read abundance (log10)” value was determined as 0.00948.
The value for “GGCAATCCATGGACCGGTTTTCCCGGTAATCCGTATTTGTA (site GGCAATCCTTG)” was 0; that for “GGCAATCCATGGACCGGTTTTCCCGGTAATCCGTATTTGTA (site GGCAATCCTTT)” was 0.
With “GGCACAGCATGGACCGGTTTTCCCGGTAATCCGTATTTGAA (site GGCACAGCTTT)”, the “recombinant UMI read abundance (log10)” value amounted to 1.87.
The value for “GGCAGAGCATGGACCGGTTTTCCCGGTAATCCGTATTTGCC (site GGCAGAGCTGG)” was 0; that for “GGCCAACCATGGACCGGTTTTCCCGGTAATCCGTATTTGTT (site GGCCAACCTAA)” was 0.00804.
Turning to “GGCCAACCATGGACCGGTTTTCCCGGTAATCCGTATTTGTT (site GGCCACCCTAA)”, the “recombinant UMI read abundance (log10)” value stood at 0.0125.
The value for “GGCCAACCATGGACCGGTTTTCCCGGTAATCCGTATTTGTT (site GGCCAGCCTAA)” was 0.0207; that for “GGCCAACCATGGACCGGTTTTCCCGGTAATCCGTATTTGTT (site GGCCATCCTAA)” was 0.00632.
The value for “GGCCACCCATGGACCGGTTTTCCCGGTAATCCGTATTTGCG (site GGCCACCCTCG)” was 0.00687; that for “GGCCACCCATGGACCGGTTTTCCCGGTAATCCGTATTTGCT (site GGCCACCCTAA)” was 0.0723.
As to “GGCCACCCATGGACCGGTTTTCCCGGTAATCCGTATTTGCT (site GGCCACCCTAC)”, the “recombinant UMI read abundance (log10)” value was 0.0158.
Take “GGCCACCCATGGACCGGTTTTCCCGGTAATCCGTATTTGCT (site GGCCACCCTAG)”: the “recombinant UMI read abundance (log10)” value was 0.
